Data on four molecules can be found in US20200289480A1, “PERGOLIDE FOR USE IN THE TREATMENT OF EYE DISEASES ASSOCIATED WITH AN ELEVATED LEVEL OF VASCULAR ENDOTHELIAL GROWTH FACTOR (VEGF) AND PHARMACEUTICAL COMPOSITION CONTAINING PERGOLIDE” (priority 2017, published 2020).

Experiment [1] deals with development of normal blood vessels. In words: zebrafish embryo model, development of normal blood vessels. Particulars: for effect on the development of normal blood vessels: lower concentrations (below 2.5 μmol: 50 nmol, 100 nmol, 500 nmol, 1 μmol). In kind it is in vivo, zebrafish (Danio rerio). As for the experimental part:
(§1) In studies on the effect of various substances on VEGF release and action, among others, a laboratory model using zebrafish (Danio rerio) is employed. The study tested 3 substances with potential inhibitory activity towards VEGF release and action which belong to the group of dopaminergic receptor D2 agonists—bromocriptine, cabergoline and pergolide. The study was conducted on the model using transgenic zebrafish embryos (Zebrafish Fli strain) with labelled blood system, illuminating under the fluorescent microscope. Photographic documentation was collected using Stereo Discover v8 fluorescent microscope, fluorescence 200c hxp, from Carl Zeiss Microscopy GmbH. During the study, the development of normal blood vessels and pathological blood vessels (abnormal angiogenesis) was observed. Abnormal angiogenesis was induced with the use of cobalt chloride (CoCl2) in a dose of 5 mM which was administered to the culture medium. The study tested the inhibitory effect of bromocriptine, cabergoline and pergolide on the development of normal blood vessels, as well as the inhibition of abnormal angiogenesis in 5 increasing concentrations of these substances: 50 nmol, 100 nmol, 500 nmol, 1 μmol, 2.5 μmol, dissolved in dimethyl sulfoxide (DMSO) and administered to the culture medium. Any changes in the development of natural (FIG. 1) and pathological blood vessels (FIG. 2) were recorded 72 an 96 hours after the administration of a tested substance and a tested substance with CoCl2, respectively. The level of inhibition of normal and pathological blood vessels development in tested embryos was compared to the activity of bevacizumab (Avastin) at the concentration of 2.5 μg/ml, which is an anti-VEGF recombinant humanised monoclonal antibody (FIGS. 3).

The subject of experiment [2] is pathological blood vessels (abnormal angiogenesis) induced with CoCl2. In words: zebrafish embryo model, CoCl2-induced abnormal angiogenesis. It counts as in vivo, zebrafish (Danio rerio). Conditions: for effect on the development of pathological blood vessels: lower concentrations (below 2.5 μmol: 50 nmol, 100 nmol, 500 nmol, 1 μmol); for effect on the development of pathological blood vessels / inhibition of growth of pathological eye blood vessels / inhibition of growth of ventral vessels: CoCl2 5 mM; for inhibitory effect compared with other agents: qualitative comparison in the angiogenesis model. How it is done:
as §1, with “3). 72 and 96 after CoCl2 administration, the increase in the number of pathological eye blood vessels and the abnormal morphology thereof in the eyes (FIG. 2) as well as of ventral vessels (FIGS. 4 and 5) was observed.” for “3).”

Setting [3] is: 2.5 μmol in culture medium, transgenic Zebrafish Fli embryos, recorded 72 and 96 hours.
Setting [4] is: 2.5 μmol in culture medium, recorded 72 and 96 hours.

On to `CC(C)C[C@H]1C(=O)N2CCC[C@H]2[C@]2(O)O[C@](NC(=O)[C@@H]3C=C4c5cccc6[nH]c(Br)c(c56)C[C@H]4N(C)C3)(C(C)C)C(=O)N12` [bromocriptine], for which the “effect on the development of normal blood vessels” value in experiment [1] is given as “no inhibitory effect”. Also, in experiment [2], the “effect on the development of pathological blood vessels” value was “no inhibitory effect”.
`C=CCN1C[C@H](C(=O)N(CCCN(C)C)C(=O)NCC)C[C@@H]2c3cccc4[nH]cc(c34)C[C@H]21` [cabergoline]: in experiment [1] (setting [3]), the “inhibition of growth of normal eye blood vessels” value is reported as “partial inhibition”. Besides, in experiment [1], the “effect on the development of normal blood vessels” value is given as “no significant effect”. For the same molecule, in experiment [2] (setting [4]), the “inhibition of growth of pathological eye blood vessels” value was “full inhibition” and the “inhibition of growth of ventral vessels” value was “full inhibition”. Besides, the “inhibition of abnormal ventral vessels growth” value in experiment [2] (2.5 μmol, 72 hours, FIG. 8) was “Full inhibition”. For the same molecule, in experiment [2] (lower concentrations (below 2.5 μmol)), the “effect on the development of ventral vessels” value is “no significant effect”. Further, in experiment [2], the “effect on the development of pathological blood vessels” value is on record as “no significant effect” and the “inhibitory effect compared with other agents” value is “more potent compared to bromocriptine”.
As for `CCCN1C[C@H](CSC)C[C@@H]2c3cccc4[nH]cc(c34)C[C@H]21` [pergolide], the “inhibition of growth of normal eye blood vessels” value in experiment [1] (1.0 μmol in culture medium) is recorded as “partial inhibition”; in experiment [1] (setting [3]), “full inhibition”. The “inhibition of normal ventral vessels growth” value in experiment [1] (1 μmol, 72 hours, FIG. 9) was “Partial inhibition”. Besides, the “inhibition of growth of pathological eye blood vessels” value in experiment [2] (1.0 μmol in culture medium) and in experiment [2] (setting [4]) was “full inhibition” throughout. The “inhibition of growth of ventral vessels” value in experiment [2] (1.0 μmol in culture medium) and in experiment [2] (setting [4]) was “full inhibition” in each case. Also, the “inhibitory effect on the development of normal and pathological blood vessels (overall conclusion)” value in experiment [2] (conclusion from all concentrations tested) is “potent inhibitory effect”. The “inhibitory effect compared with other agents” value in experiment [2] was “more potent than for known agents”.
Consider bevacizumab, for which the “inhibition of CoCl2-induced abnormal vascular growth (eye)” value in experiment [2] (2.5 μmol, 96 hours, FIG. 3) was “Inhibition”.
